In PMC4764975, “Probing the enzyme kinetics, allosteric modulation and activation of α1- and α2-subunit-containing AMP-activated protein kinase (AMPK) heterotrimeric complexes by pharmacological and physiological activators” (Biochemical Journal, 2016):
Where two headings read alike, the source gives them in different places.

How the values were obtained:
[1] = target: T1, BAP-tagged AMPK α1β2γ1 (Homo sapiens, UniProt O43741+P54619+Q13131); test: SPR direct binding (Biacore)
T1 construct: Recombinant full-length AMPK heterotrimeric complexes α1β1γ1, α1β2γ1, α1β2γ3, α2β1γ1, α2β2γ1 and α2β2γ3 were cloned into a tricistronic vector system; 6X-His (N); made in house; host or cells: E. coli BL21-CodonPlus (DE3)-RIPL, co-expressed with BirA
T1 sequence (Q13131 whole entry): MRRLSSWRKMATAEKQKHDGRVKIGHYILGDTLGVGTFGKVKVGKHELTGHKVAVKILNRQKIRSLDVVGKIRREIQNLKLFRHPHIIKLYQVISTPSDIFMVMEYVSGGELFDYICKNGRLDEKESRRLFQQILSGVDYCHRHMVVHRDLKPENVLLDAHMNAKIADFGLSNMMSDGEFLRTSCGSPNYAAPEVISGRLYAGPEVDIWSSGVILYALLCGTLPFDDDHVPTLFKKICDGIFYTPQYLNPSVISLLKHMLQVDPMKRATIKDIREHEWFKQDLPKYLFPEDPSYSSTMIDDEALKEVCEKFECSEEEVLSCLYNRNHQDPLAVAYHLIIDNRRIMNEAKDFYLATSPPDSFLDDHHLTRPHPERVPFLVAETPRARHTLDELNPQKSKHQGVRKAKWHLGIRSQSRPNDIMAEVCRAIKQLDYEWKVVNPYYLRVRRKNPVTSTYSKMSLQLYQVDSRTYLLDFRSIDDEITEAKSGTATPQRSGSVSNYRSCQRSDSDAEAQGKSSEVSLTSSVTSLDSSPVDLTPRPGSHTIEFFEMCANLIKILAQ
T1 sequence (O43741 whole entry): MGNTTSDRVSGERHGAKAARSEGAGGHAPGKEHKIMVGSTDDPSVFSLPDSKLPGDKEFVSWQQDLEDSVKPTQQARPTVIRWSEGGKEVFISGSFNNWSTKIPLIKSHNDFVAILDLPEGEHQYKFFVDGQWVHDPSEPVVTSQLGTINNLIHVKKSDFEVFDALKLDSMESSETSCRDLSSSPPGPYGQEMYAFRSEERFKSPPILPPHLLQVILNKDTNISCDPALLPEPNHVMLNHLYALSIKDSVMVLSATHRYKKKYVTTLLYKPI
T1 sequence (P54619 whole entry): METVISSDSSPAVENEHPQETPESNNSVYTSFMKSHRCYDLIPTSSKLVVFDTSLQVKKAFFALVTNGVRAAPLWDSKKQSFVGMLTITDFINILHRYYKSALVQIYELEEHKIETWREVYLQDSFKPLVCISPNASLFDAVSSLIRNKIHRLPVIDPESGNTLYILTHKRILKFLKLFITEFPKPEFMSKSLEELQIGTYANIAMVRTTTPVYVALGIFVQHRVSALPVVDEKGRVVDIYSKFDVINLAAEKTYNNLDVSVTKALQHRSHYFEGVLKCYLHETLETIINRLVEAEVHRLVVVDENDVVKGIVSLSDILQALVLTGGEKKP
Procedure: (§1) SPR experiments were performed on a Biacore™ 3000 instrument (GE Healthcare). BAP-tagged AMPK isoform (α1β1γ1, α1β2γ1, α2β2γ1, α2β2γ3) was captured on to a streptavidin sensor chip to levels ranging from 4000 to 6000 RU. […] Binding responses were processed using Scrubber 2 (BioLogic Software Pty Ltd) to zero, x-align, double reference and corrected for excluded volume effect of DMSO in the data. […] The compound was injected at a flow rate of 50 μl/min with total contact time of 120 s and dissociation time of 600 s. Rate parameters (kon, koff) and corresponding dissociation constant(KD=koff/kon) were determined by globally fitting all of the experimental data to a simple 1:1 interaction model using Biaeval software (GE Healthcare). To determine nt binding, 10 concentrations with 2-fold dilutions were tested in duplicate. The highest concentration tested was 2 mM. The compound was injected at a flow rate of 50 μl/min with total contact time of 120 s and dissociation time of 300 s. Equilibrium dissociation constant (KD) was determined using a steady-state affinity algorithm available within Scrubber.
(§2) We then compared the binding of nts (AMP, ADP and ATP) to α1β1γ1, α1β2γ1, α2β2γ1 and α2β2γ3 isoforms in the presence and absence of Mg^2+ and Stau, using SPR technique.

[2] = target: T2, BAP-tagged AMPK α2β2γ3 (Homo sapiens, UniProt O43741+P54646+Q9UGI9); test: SPR direct binding (Biacore)
T2 construct: Recombinant full-length AMPK heterotrimeric complexes α1β1γ1, α1β2γ1, α1β2γ3, α2β1γ1, α2β2γ1 and α2β2γ3 were cloned into a tricistronic vector system; 6X-His (N); made in house; host or cells: E. coli BL21-CodonPlus (DE3)-RIPL, co-expressed with BirA
T2 sequence (P54646 whole entry): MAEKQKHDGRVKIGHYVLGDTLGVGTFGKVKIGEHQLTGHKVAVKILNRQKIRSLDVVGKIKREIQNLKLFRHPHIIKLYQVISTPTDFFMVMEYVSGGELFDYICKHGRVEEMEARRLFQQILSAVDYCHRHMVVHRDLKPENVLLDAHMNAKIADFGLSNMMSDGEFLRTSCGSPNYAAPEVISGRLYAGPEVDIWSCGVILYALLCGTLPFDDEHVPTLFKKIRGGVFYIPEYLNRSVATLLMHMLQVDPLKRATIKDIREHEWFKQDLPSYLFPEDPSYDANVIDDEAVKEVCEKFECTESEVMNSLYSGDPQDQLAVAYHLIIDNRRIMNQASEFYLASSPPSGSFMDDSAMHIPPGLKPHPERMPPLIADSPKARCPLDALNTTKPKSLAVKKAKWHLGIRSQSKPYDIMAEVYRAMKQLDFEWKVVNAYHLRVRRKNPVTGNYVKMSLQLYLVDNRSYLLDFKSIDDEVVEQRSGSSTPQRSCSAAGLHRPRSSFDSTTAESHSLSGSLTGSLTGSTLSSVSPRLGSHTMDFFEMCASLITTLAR
T2 sequence (O43741 whole entry): as the sequence (O43741 whole entry) above
T2 sequence (Q9UGI9 whole entry): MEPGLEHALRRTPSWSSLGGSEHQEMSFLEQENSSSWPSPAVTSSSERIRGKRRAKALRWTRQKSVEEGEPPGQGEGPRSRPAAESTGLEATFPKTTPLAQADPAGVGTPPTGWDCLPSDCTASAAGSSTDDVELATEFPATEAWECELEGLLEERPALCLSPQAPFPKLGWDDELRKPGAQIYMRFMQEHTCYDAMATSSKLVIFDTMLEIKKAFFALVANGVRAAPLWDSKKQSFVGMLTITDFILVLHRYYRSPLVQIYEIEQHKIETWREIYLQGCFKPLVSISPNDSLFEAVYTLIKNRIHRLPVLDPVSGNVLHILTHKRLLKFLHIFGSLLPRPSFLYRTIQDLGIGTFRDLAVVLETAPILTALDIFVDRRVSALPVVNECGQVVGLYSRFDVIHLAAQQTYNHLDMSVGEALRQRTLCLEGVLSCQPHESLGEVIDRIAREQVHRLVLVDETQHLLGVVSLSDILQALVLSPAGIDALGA
Procedure: as §1, §2

[3] = target: T3, BAP-tagged AMPK α2β2γ1 (Homo sapiens, UniProt O43741+P54619+P54646); test: SPR direct binding (Biacore)
T3 construct: Recombinant full-length AMPK heterotrimeric complexes α1β1γ1, α1β2γ1, α1β2γ3, α2β1γ1, α2β2γ1 and α2β2γ3 were cloned into a tricistronic vector system; 6X-His (N); made in house; host or cells: E. coli BL21-CodonPlus (DE3)-RIPL, co-expressed with BirA
T3 sequence (P54646 whole entry): as the sequence (P54646 whole entry) above
T3 sequence (O43741 whole entry): as the sequence (O43741 whole entry) above
T3 sequence (P54619 whole entry): as the sequence (P54619 whole entry) above
Procedure: as §1
(§3) We then compared the binding of nts (AMP, ADP and ATP) to α1β1γ1, α1β2γ1, α2β2γ1 and α2β2γ3 isoforms in the presence and absence of Mg^2+ and Stau, using SPR technique. […]

[4] = target: T4, BAP-tagged AMPK α1β1γ1 (Homo sapiens, UniProt P54619+Q13131+Q9Y478); test: SPR direct binding (Biacore)
T4 construct: Recombinant full-length AMPK heterotrimeric complexes α1β1γ1, α1β2γ1, α1β2γ3, α2β1γ1, α2β2γ1 and α2β2γ3 were cloned; 6X-His (N); AviTag (BAP); made in house; host or cells: E. coli (co-expressed with BirA)
T4 sequence (Q13131 whole entry): as the sequence (Q13131 whole entry) above
T4 sequence (Q9Y478 whole entry): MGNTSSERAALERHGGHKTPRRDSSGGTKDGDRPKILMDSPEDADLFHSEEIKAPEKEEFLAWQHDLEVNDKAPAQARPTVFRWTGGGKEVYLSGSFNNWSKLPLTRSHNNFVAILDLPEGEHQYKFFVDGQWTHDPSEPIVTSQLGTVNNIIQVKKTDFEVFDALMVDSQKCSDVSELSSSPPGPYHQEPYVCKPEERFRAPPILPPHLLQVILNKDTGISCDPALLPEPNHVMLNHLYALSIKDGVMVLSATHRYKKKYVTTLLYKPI
T4 sequence (P54619 whole entry): as the sequence (P54619 whole entry) above
Procedure: as §1, §3

[5] = target: AMPK heterotrimeric complex α2β2γ1 (UniProt P54646)
AMPK heterotrimeric complex α2β2γ1, sequence (P54646 whole entry, chain 1 of 3): as the sequence (P54646 whole entry) above
AMPK heterotrimeric complex α2β2γ1, sequence (O43741 whole entry, chain 2 of 3, further chain): as the sequence (O43741 whole entry) above
AMPK heterotrimeric complex α2β2γ1, sequence (P54619 whole entry, chain 3 of 3, further chain): as the sequence (P54619 whole entry) above

[6] = target: AMPK heterotrimeric complex α1β2γ1 (UniProt Q13131)
AMPK heterotrimeric complex α1β2γ1, sequence (Q13131 whole entry, chain 1 of 3): as the sequence (Q13131 whole entry) above
AMPK heterotrimeric complex α1β2γ1, sequence (O43741 whole entry, chain 2 of 3, further chain): as the sequence (O43741 whole entry) above
AMPK heterotrimeric complex α1β2γ1, sequence (P54619 whole entry, chain 3 of 3, further chain): as the sequence (P54619 whole entry) above

[7] = presence of Mg2+ and 25 nM Stau, cell spans KD1 and KD2, read-out: KD (single measurable binding affinity)
[8] = presence of Mg2+, cell spans KD1 and KD2, read-out: KD (single measurable binding affinity)
[9] = tighter site, absence of Mg2+ and Stau, read-out: KD1
[10] = weaker site, absence of Mg2+ and Stau, read-out: KD2

Nc1ncnc2c1ncn2[C@@H]1O[C@H](COP(=O)(O)OP(=O)(O)O)[C@@H](O)[C@H]1O [ADP]
Kd [1, 7]: 15 ± 1 µM
Kd [1, 8]: 28.2 ± 0.3 µM
Kd [1, 9]: 4.2 ± 0.2 µM
Kd [1, 10]: 2600 ± 400 µM
Kd [2, 7]: 12.5 ± 0.1 µM
Kd [2, 8]: 19 ± 0.2 µM
Kd [2, 9]: 11.2 ± 0.3 µM
Kd [2, 10]: 1500 ± 200 µM
Kd [3, 7]: 11.9 ± 0.3 µM
Kd [3, 8]: 22.8 ± 0.5 µM
Kd [3, 9]: 2.47 ± 0.09 µM
Kd [3, 10]: 2600 ± 300 µM
Kd [4, 7]: 24.4 ± 0.4 µM
Kd [4, 8]: 33.3 ± 0.3 µM
Kd [4, 9]: 4.75 ± 0.08 µM
Kd [4, 10]: 1010 ± 80 µM

SAMS peptide
Km for SAMS peptide (radiometric kinase assay, fixed ATP, no AMP) [5]: 108 µM
Km for SAMS peptide (radiometric kinase assay, fixed ATP, no AMP) [6]: 32.3 µM
